How the values were obtained:
Assay in all cases: relative viability (nuclei count vs DMSO), 5 days (fraction); higher = more cells survive
[1] = compound: COc1cc2nc(N3CCCN(C)CC3)nc(NC3CCN(Cc4ccccc4)CC3)c2cc1OC + C[C@@H](Oc1cc(-c2cnn(C3CCNCC3)c2)cnc1N)c1c(Cl)ccc(F)c1Cl [Crizotinib] (partner 1 µM)
In short: (§1)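 Relative viability was taken as the ratio of nuclei in treated wells to nuclei in vehicle wells. Lung cancer cell lines in 1536-well plates received compounds by pin tool one day after seeding, either one drug alone or a fixed anchor-drug dose plus five library-drug doses (not always all listed) in √10 steps. Nuclei were counted on 4× images after 5 days of treatment, and values are medians of duplicate plates.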

[2] = compound: COc1cc2nc(N3CCCN(C)CC3)nc(NC3CCN(Cc4ccccc4)CC3)c2cc1OC + Nc1ncn([C@H]2C[C@H](O)[C@@H](CO)O2)c(=O)n1 [Decitabine] (partner 2 µM)
In short: as §1

AZD6482 + Vorinostat = compound: Cc1cc([C@@H](C)Nc2ccccc2C(=O)O)c2nc(N3CCOCC3)cc(=O)n2c1 [AZD6482] + O=C(CCCCCCC(=O)Nc1ccccc1)NO [Vorinostat] (partner 1 µM)
In short: as §1

AZD6482 + Tozasertib = compound: Cc1cc([C@@H](C)Nc2ccccc2C(=O)O)c2nc(N3CCOCC3)cc(=O)n2c1 [AZD6482] + Cc1cc(Nc2cc(N3CCN(C)CC3)nc(Sc3ccc(NC(=O)C4CC4)cc3)n2)n[nH]1 [Tozasertib] (partner 0.1 µM)
In short: as §1

Cell Line	relative viability ([1]; first compound 0.2 µM)	relative viability ([1]; first compound 0.6325 µM)	relative viability ([1]; first compound 2 µM)	relative viability ([1]; first compound 6.325 µM)	relative viability ([2]; first compound 0.2 µM)	relative viability ([2]; first compound 0.6325 µM)	relative viability ([2]; first compound 2 µM)	relative viability ([2]; first compound 6.325 µM)	relative viability (AZD6482 + Vorinostat; first compound 0.08 µM)	relative viability (AZD6482 + Vorinostat; first compound 0.253 µM)	relative viability (AZD6482 + Vorinostat; first compound 0.8 µM)	relative viability (AZD6482 + Vorinostat; first compound 2.53 µM)	relative viability (AZD6482 + Vorinostat; first compound 8 µM)	relative viability (AZD6482 + Tozasertib; first compound 0.08 µM)	relative viability (AZD6482 + Tozasertib; first compound 0.253 µM)	relative viability (AZD6482 + Tozasertib; first compound 0.8 µM)	relative viability (AZD6482 + Tozasertib; first compound 2.53 µM)	relative viability (AZD6482 + Tozasertib; first compound 8 µM)
COR-L 105	0.653	0.872	0.878	0.455	0.687	0.685	0.648	0.492	0.75	0.663	0.907	0.649	0.648	0.362	0.348	0.352	0.336	0.344
NCI-H1975	1.06	0.933	1.07	0.95	0.37	0.39	0.419	0.37	0.638	0.655	0.743	0.535	0.482	0.624	0.717	0.701	0.629	0.463
NCI-H1993	0.796	0.839	0.882	0.834	0.566	0.522	0.58	0.568	0.742	0.73	0.569	0.376	0.47	0.446	0.609	0.55	0.527	0.562
RERF-LC-KJ	0.721	0.82	0.872	0.853	0.743	0.699	0.733	0.679	0.648	0.616	0.557	0.648	0.514	0.447	0.513	0.49	0.465	0.388
NCI-H23	0.417	0.556	0.59	0.546	0.307	0.334	0.316	0.322	0.542	0.516	0.617	0.374	0.407	0.489	0.302	0.398	0.358	0.228
HCC-366	0.566	0.515	0.644	0.567	0.334	0.292	0.358	0.309	0.269	0.26	0.457	0.269	0.203	0.108	0.0944	0.0731	0.12	0.063
EMC-BAC-2	0.729	0.747	0.843	0.824	0.997	0.968	0.882	0.915	0.534	0.413	0.526	0.341	0.316	0.285	0.288	0.274	0.287	0.272
NCI-H2405	0.869	0.825	0.927	0.894	0.706	0.745	0.784	0.729	0.762	0.9	1.03	0.644	0.501	0.465	–	0.668	0.53	0.403
NCI-H358	0.495	0.642	0.903	0.639	0.203	0.2	0.2	0.158	0.494	0.648	0.672	0.347	0.56	0.0814	0.107	0.104	0.0733	0.0946
NCI-H1944	1.12	1.07	–	1.17	0.465	0.505	0.391	0.455	0.544	0.498	0.609	0.43	0.469	0.238	0.242	0.217	0.206	0.189
EPLC-272H	0.811	0.915	1.05	0.785	0.392	0.387	0.341	0.38	0.466	0.397	0.474	0.256	0.252	0.185	0.111	0.211	0.277	0.157
NCI-H1915	0.909	0.825	0.947	0.866	0.263	0.26	0.276	0.264	0.432	0.467	0.538	0.4	0.462	0.453	0.346	0.417	0.426	0.371
NCI-H596	0.998	1.09	0.988	0.933	1.13	0.934	0.958	1.03	0.464	0.555	0.732	0.691	0.556	0.854	1.16	0.725	0.772	0.666
NCI-H322M	0.873	1.01	0.973	0.915	0.717	0.708	0.768	0.708	0.846	0.818	0.812	0.473	0.565	0.442	0.461	0.453	0.319	0.384
NCI-H647	1.01	0.973	0.968	0.466	0.421	0.356	0.394	0.28	0.63	0.55	0.473	0.41	0.619	0.23	0.26	0.192	0.145	0.23
SK-MES-1	0.97	0.962	1.04	1.06	0.371	0.351	0.316	0.101	0.842	1.05	1.02	0.594	0.684	0.877	0.939	0.86	0.571	0.549
NCI-H2170	1.19	1.17	1.23	1.24	0.487	0.454	0.49	0.46	0.742	0.695	0.767	0.677	0.578	0.678	0.681	0.615	0.643	0.47
NCI-H2085	0.866	0.842	0.859	0.776	0.53	0.531	0.594	0.559	0.557	0.402	0.517	0.398	0.341	0.656	0.539	0.407	0.393	0.351

Cell Line	relative viability ([1]; first compound 0.2 µM)	relative viability ([1]; first compound 0.6325 µM)	relative viability ([1]; first compound 2 µM)	relative viability ([1]; first compound 6.325 µM)	relative viability ([2]; first compound 0.2 µM)	relative viability ([2]; first compound 0.6325 µM)	relative viability ([2]; first compound 2 µM)	relative viability ([2]; first compound 6.325 µM)	relative viability (AZD6482 + Vorinostat; first compound 0.08 µM)	relative viability (AZD6482 + Vorinostat; first compound 0.253 µM)	relative viability (AZD6482 + Vorinostat; first compound 0.8 µM)	relative viability (AZD6482 + Vorinostat; first compound 2.53 µM)	relative viability (AZD6482 + Vorinostat; first compound 8 µM)	relative viability (AZD6482 + Tozasertib; first compound 0.08 µM)	relative viability (AZD6482 + Tozasertib; first compound 0.253 µM)	relative viability (AZD6482 + Tozasertib; first compound 0.8 µM)	relative viability (AZD6482 + Tozasertib; first compound 2.53 µM)	relative viability (AZD6482 + Tozasertib; first compound 8 µM)
SW 1573	0.893	0.845	0.88	0.819	0.542	0.48	0.402	0.182	0.766	0.681	0.654	0.58	0.48	0.158	0.17	0.184	0.123	0.143
NCI-H727	0.757	0.752	1.13	0.592	0.756	1.02	0.865	0.726	1.1	1.11	1.17	–	0.96	0.587	0.645	0.571	0.457	0.449
NCI-H441	0.656	–	0.59	0.701	0.239	0.225	0.3	0.206	0.854	0.788	0.741	–	0.782	0.631	0.545	0.632	–	0.527
LOU-NH91	0.701	0.742	0.668	0.778	0.779	0.845	0.853	0.808	0.852	0.92	0.834	0.602	0.712	0.551	0.66	0.605	0.546	0.496
NCI-H3122	0.256	0.305	0.293	0.267	0.398	0.451	0.461	0.363	1.01	1.1	0.829	0.84	0.796	0.355	0.348	0.344	–	0.351
NCI-H460	0.833	0.878	0.893	0.313	0.484	0.449	0.431	0.389	0.599	0.797	0.895	0.344	0.594	0.468	0.288	0.135	0.537	0.389
NCI-H650	0.734	0.589	0.841	0.733	0.323	0.307	0.392	0.279	0.464	0.489	0.372	0.256	0.301	0.722	–	0.751	0.588	0.443
NCI-H661	0.995	0.9	1.24	0.922	0.58	0.569	0.588	0.689	0.794	0.825	0.914	0.736	0.846	0.365	0.362	0.407	0.372	0.383
NCI-H1734	0.66	0.602	0.687	0.661	0.504	0.469	0.516	0.519	0.804	0.68	0.801	0.52	0.582	0.287	0.263	0.269	0.217	0.24
LXF-289	0.812	0.8	0.824	0.786	0.396	0.365	0.418	0.393	0.814	0.741	0.87	0.729	0.752	0.178	0.135	0.171	0.207	0.122
H3255	0.781	0.894	1.03	0.856	0.576	0.626	0.601	0.588	0.741	0.871	0.764	0.697	0.689	0.607	0.595	0.42	0.442	0.594
201T	0.995	1.1	1.04	0.995	0.889	0.812	0.859	0.799	0.965	0.938	0.983	0.764	0.862	0.904	0.889	0.88	0.766	0.875
NCI-H2126	0.978	0.969	1.08	0.996	0.577	0.55	0.561	0.567	0.728	0.703	0.577	0.389	0.432	0.786	0.804	0.669	0.423	0.561
HOP-62	0.936	0.822	0.764	0.943	0.214	0.201	0.198	0.216	0.613	0.583	0.615	0.408	0.473	0.374	0.382	0.311	0.363	0.332
NCI-H520	0.714	0.664	0.852	0.214	0.495	0.454	0.534	0.214	0.599	0.467	0.496	0.273	0.319	0.39	0.344	0.344	0.221	0.221
NCI-H1755	0.868	0.792	0.919	0.814	0.657	0.669	0.689	0.663	0.691	0.638	0.742	0.495	0.566	0.608	0.537	0.688	0.478	0.519
NCI-H2023	0.616	0.592	0.686	0.156	0.226	0.218	0.25	0.114	0.642	0.435	0.509	0.37	0.455	0.367	0.336	0.286	0.289	0.279
NCI-H2009	1.05	0.923	1.06	0.874	0.396	0.392	0.43	0.375	0.583	0.775	0.665	0.501	0.573	0.677	0.733	0.637	0.503	0.521
